Test results taken from US20250304549A1, “HYDROXYAMIDE DERIVATIVE AND USE THEREOF” (SICHUAN HUIYU PHARMACEUTICAL CO., LTD., priority 2022, published 2025).
Where a name gives a salt, the structure may show the parent alone. One block for each compound: values may come before it.

Key:
[1] = molecular target: LSD1 (Homo sapiens (Human), UniProt O60341); assay: In vitro enzyme inhibition assay - LSD1 (HTRF); assay type: biochemical
[2] = molecular target: pan-HDAC; assay: In vitro enzyme inhibition assay - HDAC (HDAC-Glo I/II), pan-HDAC; assay type: biochemical
Procedure, shortened: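 The compound, serially diluted 5-fold in DMSO across 8 concentrations starting from a 1 mM stock, was made up as 4× working solutions in HDAC buffer. It was then tested in the HDAC-Glo I/II system, and luminescence was recorded. IC50 values came from variable-slope four-parameter curves of inhibition rate.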

[3] = molecular target: HDAC8 (Homo sapiens (Human), UniProt Q9BY41); assay: In vitro enzyme inhibition assay - HDAC (HDAC-Glo I/II), HDAC8; assay type: biochemical; conditions: read-out: HDAC IC50 (nM) HDAC 8
Chain of HDAC8 (Q9BY41 whole entry): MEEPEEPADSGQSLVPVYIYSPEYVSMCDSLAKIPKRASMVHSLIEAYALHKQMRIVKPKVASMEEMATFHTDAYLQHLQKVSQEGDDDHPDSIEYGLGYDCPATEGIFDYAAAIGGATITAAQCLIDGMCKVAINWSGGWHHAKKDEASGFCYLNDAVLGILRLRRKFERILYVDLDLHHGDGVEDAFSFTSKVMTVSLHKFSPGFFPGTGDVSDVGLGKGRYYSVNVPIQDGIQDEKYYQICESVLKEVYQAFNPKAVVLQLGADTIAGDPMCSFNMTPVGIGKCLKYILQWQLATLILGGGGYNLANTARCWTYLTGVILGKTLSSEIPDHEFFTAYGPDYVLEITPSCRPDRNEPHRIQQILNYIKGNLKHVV
Procedure: 2. In Vitro Enzyme Inhibition Assay—HDAC
The effect of the compound on the enzymatic activity of pan-HDAC and two isoforms (HDAC1 and HDAC8) was examined using the HDAC-Glo I/II Assay and Screening System assay to assess the level of inhibition of HDAC protease activity and selectivity in each isoform. The proteins and detection reagents were from the HDAC-Glo™ I/II Assay and Screening System (Promega). A 1 mM stock solution of the compound was prepared in DMSO and diluted in a 5-fold gradient to create a series of 8 concentrations, and a specific volume of the highest concentration was diluted 25 times with HDAC Buffer to obtain 4× working solution of the compound. […] The 384-well plate was then read on a multifunctional microplate reader, with the Luminescence channel selected to record Luminescence values (RLU). The inhibition rate was calculated using the following formula: […]
Note: ‘Negative’ refers to the group without the inhibitor; ‘Blank’ refers to the group without the enzyme.
The IC50 value was calculated by fitting the inhibition rate by GraphPad Prism software, employing log (inhibitor) vs. response-Variable Slope (four parameters) model.

[4] = tested on: NCI-H1417 cells; assay: In vitro cell inhibition assay - H1417 cell proliferation (CellTiter-Glo); assay type: cell-based; conditions: Homo sapiens, NCI-H1417, H1417 small cell lung cancer cell proliferation
Procedure, shortened: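 Cells exposed to 8 compound concentrations (5-fold dilutions) in BEGM with 10% FBS for 7 days at 37° C., 5% CO2. Viable cells measured by CellTiter-Glo luminescence; inhibition versus no-inhibitor and no-cell controls, IC50 fitted.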

[5] = tested on: NCI-H69 cells; assay: In vitro cell inhibition assay - NCI-H69 cell proliferation (CellTiter-Glo); assay type: cell-based; conditions: Homo sapiens, NCI-H69, H69 small cell lung cancer cell proliferation
Procedure, shortened: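 CellTiter-Glo luminescence measured viability after a 7-day, 37° C. exposure of NCI-H69 cells (1×10^3/well) to an 8-point, 5-fold dilution series in RPMI-640/20% FBS. Inhibition was normalised to untreated and cell-free wells and IC50 derived by curve fitting.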

SMILES: N#Cc1ccc(-c2cc(C(=O)N3C4CCC3CC(N)C4)sc2-c2ccc(OCCCCCCC(=O)NO)c(O)c2)cc1F (centres unmarked) [Example 32, 7-(4-(5-(3-amino-8-azabicyclo[3.2.1]octane-8-carbonyl)-3-(4-cyano-3-fluorophenyl)thiophen-2-yl)-2-hydroxyphenoxy)-N-hydroxyheptanamide hydrochloride]
IC50 [1]: 0.35 nM
IC50 [2]: 14 nM
IC50 [3]: 279 nM
IC50 [4]: 54.7 nM

SMILES: COc1ccc(-c2cnc(N3CCC(N)(CCc4ccc(/C=C/C(=O)NO)cc4)CC3)c(C#N)c2-c2ccc(C#N)c(F)c2)cc1O [Example 86, (E)-3-(4-(2-(4-amino-1-(3-cyano-4-(4-cyano-3-fluorophenyl)-5-(3-hydroxy-4-methoxyphenyl)pyridin-2-yl)piperidin-4-yl)ethyl)phenyl)-N-hydroxyacrylamide formate]
IC50 [1]: 9.46 nM
IC50 [2]: 13.8 nM
IC50 [3]: 578 nM
IC50 [4]: 15.4 nM
IC50 [5]: 145 nM

SMILES: COc1ccc(-c2cnc(N3CCC(NCC4CC=C(/C=C/C(=O)NO)CC4)CC3)c(C#N)c2-c2ccc(C#N)c(F)c2)cc1O (centres unmarked) [Example 155, (E)-3-(4-(((1-(3-Cyano-4-(4-cyano-3-fluorophenyl)-5-(3-hydroxy-4-methoxyphenyl)pyridin-2-yl)piperidin-4-yl)amino)methyl)cyclohex-1-en-1-yl)-N-hydroxyacrylamide formate]
IC50 [1]: 0.58 nM
IC50 [2]: 20 nM
IC50 [3]: 23.7 nM
IC50 [4]: 11.5 nM
IC50 [5]: 314 nM

SMILES: COc1cc(O)c(-c2cnc(N3CCC(NCc4ccc(/C=C/C(=O)NO)cc4)CC3)c(C#N)c2-c2ccc(C#N)c(F)c2)cc1O [Example 158, (E)-3-(4-(((1-(3-Cyano-4-(4-cyano-3-fluorophenyl)-5-(2,5-dihydroxy-4-methoxyphenyl)pyridin-2-yl)piperidin-4-yl)amino)methyl)phenyl)-N-hydroxyacrylamide trifluoroacetate]
IC50 [1]: 0.73 nM
IC50 [2]: 0.61 nM
IC50 [3]: 87.8 nM
IC50 [4]: 93.6 nM
IC50 [5]: 250 nM

SMILES: COc1ccc(-c2cnc(N3CCC(NCc4ccc(/C=C/C(=O)NO)nn4)CC3)c(C#N)c2-c2ccc(C#N)c(F)c2)cc1O [Example 160, (E)-3-(6-(((1-(3-Cyano-4-(4-cyano-3-fluorophenyl)-5-(3-hydroxy-4-methoxyphenyl)pyridin-2-yl)piperidin-4-yl)amino)methyl)pyridazin-3-yl)-N-hydroxyacrylamide formate]
IC50 [1]: 1.12 nM
IC50 [2]: 1.48 nM
IC50 [3]: 184 nM
IC50 [4]: 5.59 nM
IC50 [5]: 80.6 nM

SMILES: Cc1c(O)cc(-c2cnc(N3CCC(NCc4ccc(/C=C/C(=O)NO)cc4)CC3)c(C#N)c2-c2ccc(C#N)c(F)c2)cc1F [Example 161, (E)-3-(4-(((1-(3-Cyano-4-(4-cyano-3-fluorophenyl)-5-(3-fluoro-5-hydroxy-4-methylphenyl)pyridin-2-yl)piperidin-4-yl)amino)methyl)phenyl)-N-hydroxyacrylamide formate]
IC50 [1]: 0.58 nM
IC50 [2]: 6.83 nM
IC50 [3]: 304 nM
IC50 [4]: 3.13 nM
IC50 [5]: 65 nM

SMILES: COc1ccc(-c2cnc(N3CCC(NCCOc4ccc(C(=O)NO)cc4)CC3)c(C#N)c2-c2ccc(C#N)c(F)c2)cc1O [Example 164, 4-(2-[(1-(3-Cyano-4-(4-cyano-3-fluorophenyl)-5-(3-hydroxy-4-methoxyphenyl)pyridin-2-yl)piperidin-4-yl)amino]ethoxy)-N-hydroxybenzamide formate]
IC50 [1]: 0.44 nM
IC50 [2]: 38.1 nM
IC50 [3]: 332 nM
IC50 [4]: 2.66 nM
IC50 [5]: 432 nM

SMILES: COc1c(O)cc(-c2cnc(N3CCC(NCc4ccc(/C=C/C(=O)NO)cc4)CC3)c(C#N)c2-c2ccc(C#N)c(F)c2)cc1F [Example 168, (E)-3-(4-(((1-(3-Cyano-4-(4-cyano-3-fluorophenyl)-5-(3-fluoro-5-hydroxy-4-methoxyphenyl)pyridin-2-yl)piperidin-4-yl)amino)methyl)phenyl)-N-hydroxyacrylamide formate]
IC50 [1]: 1.34 nM
IC50 [2]: 7.35 nM
IC50 [3]: 250 nM
IC50 [4]: 5.23 nM
IC50 [5]: 65.6 nM

SMILES: COc1ccc(-c2cnc(N3CCC(NCc4ccc(/C=C/C(=O)NO)c5[nH]ncc45)CC3)c(C#N)c2-c2ccc(C#N)c(F)c2)cc1O [Example 180, (E)-3-(4-(((1-(3-Cyano-4-(4-cyano-3-fluorophenyl)-5-(3-hydroxy-4-methoxyphenyl)pyridin-2-yl)piperidin-4-yl)amino)methyl)-1H-indazol-7-yl)-N-hydroxyacrylamide formate]
IC50 [1]: 0.11 nM
IC50 [2]: 23.4 nM
IC50 [3]: 1240 nM
IC50 [4]: 3.63 nM
IC50 [5]: 5040 nM

SMILES: COc1ccc(-c2cnc(N3CCC(NCc4ccc(OC(C)C(=O)NO)cc4)CC3)c(C#N)c2-c2ccc(C#N)c(F)c2)cc1O (centres unmarked) [Example 183, 2-(4-(((1-(3-Cyano-4-(4-cyano-3-fluorophenyl)-5-(3-hydroxy-4-methoxyphenyl)pyridin-2-yl)piperidin-4-yl)amino)methyl)phenoxy)-N-hydroxypropanamide formate]
IC50 [1]: 0.09 nM
IC50 [2]: 970 nM
IC50 [3]: 3720 nM
IC50 [4]: 1.49 nM
IC50 [5]: 742 nM

SMILES: CC(C)(O)COc1ccc(-c2cnc(N3CCC(NCc4cnc(CCC(=O)NO)s4)CC3)c(C#N)c2-c2ccc(C#N)c(F)c2)cc1O [Example 185, 3-(5-((1-(3-Cyano-4-(4-cyano-3-fluorophenyl)-5-(3-hydroxy-4-(2-hydroxy-2-methylpropoxy)phenyl)pyridin-2-yl)piperidin-4-yl)amino)methyl)thiazol-2-yl)-N-hydroxypropanamide formate]
IC50 [1]: 3.9 nM
IC50 [2]: 60.1 nM
IC50 [3]: 2160 nM
IC50 [4]: 6.16 nM
IC50 [5]: 275 nM

Continued by falling IC50 [1], values first:

IC50 [1]: 15.1 nM
IC50 [2]: 2.27 nM
IC50 [3]: 64 nM
IC50 [4]: 61.6 nM
IC50 [5]: 208 nM
SMILES: COc1ccc(-c2cnc(N3CCC(NCc4ccc(/C=C/C(=O)NO)cc4)CC3)c(C#N)c2-c2ccc(C#N)c(O)c2)cc1O [Example 166, (E)-3-(4-(((1-(3-Cyano-4-(4-cyano-3-hydroxyphenyl)-5-(3-hydroxy-4-methoxyphenyl)pyridin-2-yl)piperidin-4-yl)amino)methyl)phenyl-N-hydroxyacrylamide hydrochloride]

IC50 [1]: 1.38 nM
IC50 [2]: 134 nM
IC50 [3]: 186 nM
IC50 [4]: 48.9 nM
SMILES: COc1cc(N2CCC(N)CC2)nc(-c2ccc(C#N)c(F)c2)c1-c1ccc(OCCCCCCC(=O)NO)c(O)c1 [Example 27, 7-(4-(6-(4-aminopiperidin-1-yl)-2-(4-cyano-3-fluorophenyl)-4-methoxypyridin-3-yl)-2-hydroxyphenoxy)-N-hydroxyheptanamide hydrochloride]

IC50 [1]: 1.35 nM
IC50 [2]: 7.31 nM
IC50 [3]: 145 nM
IC50 [4]: 11.4 nM
IC50 [5]: 114 nM
SMILES: COc1cc(OC)c(-c2cnc(N3CCC(NCc4ccc(/C=C/C(=O)NO)cc4)CC3)c(C#N)c2-c2ccc(C#N)c(F)c2)cc1O [Example 165, (E)-3-(4-(((1-(3-Cyano-4-(4-cyano-3-fluorophenyl)-5-(5-hydroxy-2,4-dimethoxyphenyl)pyridin-2-yl)piperidin-4-yl)amino)methyl)phenyl-N-hydroxyacrylamide hydrochloride]

IC50 [1]: 0.82 nM
IC50 [2]: 114 nM
IC50 [3]: 252 nM
IC50 [4]: 2.23 nM
IC50 [5]: 613 nM
SMILES: COc1ccc(-c2cnc(N3CCC(NCc4ccc5sc(C(=O)NO)cc5c4)CC3)c(C#N)c2-c2ccc(C#N)c(F)c2)cc1O [Example 173, 5-(((1-(3-Cyano-4-(4-cyano-3-fluorophenyl)-5-(3-hydroxy-4-methoxyphenyl)pyridin-2-yl)piperidin-4-yl)amino)methyl)-N-hydroxybenzo[b] thiophene-2-carboxamide formate]

IC50 [1]: 0.74 nM
IC50 [2]: 5.49 nM
IC50 [3]: 400 nM
IC50 [4]: 6.21 nM
IC50 [5]: 65.5 nM
SMILES: CN(C)c1ccc(-c2cnc(N3CCC(NCc4ccc(/C=C/C(=O)NO)cc4)CC3)c(C#N)c2-c2ccc(C#N)c(F)c2)cc1O [Example 153, (E)-3-(4-(((1-(3-Cyano-4-(4-cyano-3-fluorophenyl)-5-(4-(dimethylamino)-3-hydroxyphenyl)pyridin-2-yl)piperidin-4-yl)amino)methyl)phenyl)-N-hydroxyacrylamide formate]

IC50 [1]: 0.65 nM
IC50 [2]: 588 nM
IC50 [3]: 1710 nM
IC50 [4]: 4.21 nM
IC50 [5]: 906 nM
SMILES: COc1ccc(-c2cnc(N3CCC(NCc4ccc(/C=C/C(=O)NO)o4)CC3)c(C#N)c2-c2ccc(C#N)c(F)c2)cc1O [Example 178, (E)-3-(5-(((1-(3-Cyano-4-(4-cyano-3-fluorophenyl)-5-(3-hydroxy-4-methoxyphenyl)pyridin-2-yl)piperidin-4-yl)amino)methyl)furan-2-yl)-N-hydroxyacrylamide formate]
